Columns and labels:
ACE2 receptor [1] = experiment: ACE2 ELISA assay in Human Small Airways Epithelial Cells (SAEC), 6 days; details: for decrease of ACE2 expression: FIG. 5A
Procedure: Human Small Airways Epithelial Cells (SAEC), purchased from ATCC, (Manassas, Va., USA) were cultured in Airways Epithelial Cells growth medium (ATCC) in plastic flasks at 37° C. and 5% CO2. For the experiments, the cells (passage 5-7) were plated to collagen-covered 96-well plates in 100 μL/well growth medium and were grown to confluent layer for 4 to 7 days.
For the experiments, cells were supplemented with indicated doses of tested compounds in 100 μL/well of cell growth medium for 6 days with fresh media supplementations every 2 to 3 days. […] Culture plate wells were washed twice with phosphate buffered saline (PBS) and fixed with 3% formaldehyde/0.5% Triton X-100/PBS solution for 1 hour at 4° C., then washed 4 times with PBS. Two-hundred microliter of 1% bovine serum albumin-BSA (Sigma-Aldrich, St. Louis, Mo., USA) in PBS was added and the plate was incubated at 4° C. overnight. Rabbit polyclonal anti-ACE-2 antibodies (Sigma Aldrich, St. Louis, Mo., USA) were added in 100 μL/well 1% BSA/PBS solution for 1.5 hours incubation at room temperature (RT). After 3 wash cycles with 0.1% BSA/PBS wells were supplied with 100 μL/well of anti-rabbit IgG antibodies conjugated with horse radish peroxidase (HRP, Sigma, St. Louis, Mo., USA) for 1 hour at RT. After 3 wash cycles with 0.1% BSA/PBS the HRP activity retained was determined by incubation with 100 μL/well TMB substrate solution (Sigma-Aldrich, St. Louis, Mo., USA) for 20 minutes. at RT, followed by the addition of 50 μL/well of 1N H2504 and optical density measurement at 450 nm with microplate reader (Molecular Devices, San Jose, Calif., USA).
Results are expressed as a percentage of experimental addition—free control (mean±SD, n=6). Non-specific control (wells incubated without anti-ACE2 antibodies) mean value (n=6) was subtracted from all sample values.

ACE2 mRNA [2] = experiment: qRT-PCR of ACE2 gene expression in HMEC; assay type: cell-based, human; details: 1.0 mM, 6 days, normalised to β-actin
Procedure: (§1) After 6 days, total RNA was isolated using RNeasy Plus Mini Kit (Qiagen, Germantown, Md., USA). Next, 2500 ng of each isolate was transcribed in cDNA using RT^2 HT First Strand Kit (Qiagen, Germantown, Md., USA) and subjected to qRTPCR using specific primers for ACE2 (forward primer, SEQ ID. NO. 1-5′-[…] -3′; and reverse primer, SEQ ID. NO. 2-5′-[…] -3) and β-actin (forward primer, SEQ ID. NO. 3-5′-[…] -3′; and reverse primer, SEQ ID. NO. 4-5′-[…] -3′). The PCR was performed with a QuantiTect SYBR® Green PCR Kit as the source of 2.5 mM Mg2+, deoxynucleotides and HotStarTaq DNA polymerase, in addition to each primer used at a concentration of 0.3 μM in a 50 μL qPCR mixture (Qiagen, Germantown, Md., USA) in a BioRad CFX instrument (BioRad, Hercules, Calif., USA). The qPCR cycler conditions were programmed according to the manufacturer's recommendations and were as follows: an activation step at 95° C. for 15 minutes, 40 cycles of: denaturation at 94° C. for 15 seconds, annealing at 60° C. for 30 seconds, and extension at 72° C. for 30 seconds. To verify the specificity and identity of the qPCR product, melting curve analyses were performed. The amount of β-actin cDNA was used to normalize the sample amounts used for determinations. All samples were tested in duplicate PCR reactions and the mean of the reactions was used for calculating the expression levels.

ACE2 protein [3] = experiment: Western blot of ACE2 protein expression in SAEC; details: 1.0 mM, 6 days
Procedure: (§2) Human Small Airways Epithelial Cells (SAEC), purchased from ATCC, (Manassas, Va., USA) were cultured in Airways Epithelial Cells growth medium (ATCC) in plastic flasks at 37° C. and 5% CO2. For the experiments, the cells (passage 5-7) were plated to collagen-covered 96-well plates in 100 μL/well growth medium and were grown to confluent layer for 4 to 7 days. Human Microvascular Endothelial Cells isolated from lung (HMEC), purchased from Lonza, (Hayward, Calif., USA) were cultured in EGM-2 MV growth medium (Lonza) in plastic flasks at 37° C. and 5% CO2. […]
(§3) Western blot: SAEC and HMEC were plated on 6-well plates and supplemented with 0.3, 0.6, 0.8, and 1 mM ascorbic acid, respectively. […] The protein concentration was measured by the Dc protein assay (Bio-Rad, Hercules, Calif., USA). Fifty microgram per well of protein was separated on 8% to 16% gradient SDS-PAGE gels (ie, Tris-based electrophoresis using standard Laemmle's method without (3-ME addition to sample buffer) and transferred to a PVDF membrane. Proteins were detected with commercially available anti-ACE-2 monoclonal antibody diluted 1:250 (R&D, Minneapolis, Minn., USA) and anti-β-actin antibody as a loading control (Cell Signaling, Danvers, Mass., USA).

ACE2 protein [4] = experiment: Western blot of ACE2 protein expression in HMEC; details: 1.0 mM, 6 days
Procedure: as §2, §3

ACE2 receptor [5] = experiment: ACE-2 ELISA assay in Human Aortic Endothelial Cells, 7 days supplementation; assay type: cell-based; details: 50-100 mcM, FIG. 1
Procedure: Cell supplementation with ascorbic acid: Cells were supplemented with indicated doses of ascorbic acid (Sigma) in EGM-2 for 7 days with six repetitions for each dose. Experimental medium was changed every 2-3 days with freshly prepared ascorbic acid solution in EGM-2.
Mouse monoclonal anti ACE-2 antibody (Santa Cruz Biotechnology) was added in 100 mcl 1% BSA/PBS for 1.5 h incubation at room temperature (RT). […] After three wash cycles with 0.1% BSA/PBS retained HRP activity was determined by incubation 100 mcl TMB substrate solution (Sigma) for 20 min at RT and addition of 50 mcl of 1N H2SO4 by measuring optical density at 450 nm with micro plate reader (Molecular Devices). Results are expressed as percentage of ascorbate-free Control (mean+/−SD, n=6).

ACE2 mRNA [6] = experiment: qRT-PCR of ACE2 gene expression in SAEC; assay type: cell-based, human; details: 1.0 mM, 6 days, normalised to β-actin
Procedure: as §1

SAEC = experiment: Cytotoxic effects on SAEC; assay type: cell-based, human

C=CCCCCCCCCC(=O)O [10-undecanoic acid]
decrease of ACE2 expression, individual effect (ACE2 receptor [1]; concentration not given, FIG. 9): 18%

CC(=O)N[C@@H](CS)C(=O)O [NAC]
inhibition of ACE2 expression, used individually (ACE2 receptor [1]; 2 mM): 18%

O=c1c(O)cc([C@H]2Oc3cc(O)cc(O)c3C[C@H]2O)cc2c([C@H]3Oc4cc(O)cc(O)c4C[C@H]3O)cc(O)c(O)c12 [Theaflavin]
inhibition of ACE2 expression, used individually (ACE2 receptor [1]; 33 μg/mL and 50 μM respectively, FIG. 10): about 50%

O=C1O[C@H]([C@@H](O)CO)C(O)=C1O [ascorbic acid]
ACE2 gene expression decreased by (fold) (ACE2 mRNA [2]): 0.54 fold
reduction of ACE2 protein (Western blot) (ACE2 protein [3]): 55%
reduction of ACE2 protein (Western blot) (ACE2 protein [3]; listed as ascorbate): significantly lower
reduction of ACE2 protein (Western blot) (ACE2 protein [4]): 60%
reduction of ACE2 protein (Western blot) (ACE2 protein [4]; listed as ascorbate): significantly lower
suppression of the expression of the ACE2 receptor (ACE2 receptor [5]): over 50%
decrease of ACE2 expression (ACE2 receptor [1]; 0.6 mM): about 18%
decrease of ACE2 expression (ACE2 receptor [1]; 1.0 mM): 27%
decrease of membrane expression of ACE2 (ACE2 receptor [1]; 800 mcM, FIG. 4): 27%
ACE2 gene expression decreased by (fold) (ACE2 mRNA [6]): 0.61 fold

CCCCCCCCCCCCCCCC(=O)OC[C@H](O)[C@H]1OC(=O)C(O)=C1O [ascorbyl palmitate]
concentrations showing cytotoxic effects (SAEC): > 100 µM
inhibition of ACE2 expression (ACE2 receptor [1]; 75 μM, FIG. 5B): 50%

O=c1cc(-c2ccccc2)oc2cc(O)c(O)c(O)c12 [baicalein]
inhibition of ACE2 expression, used individually (ACE2 receptor [1]; 25 μM, compared to no ascorbate control, FIG. 7): 75%
